Test results from ChEMBL document CHEMBL1140499, “Novel heparin/heparan sulfate mimics as inhibitors of HGF/SF-induced MET activation” (2007).
Active and inactive are the calls of the source. The calls are words filed in the database; no cut-off is given here.

What was measured:
[1] = organism: Cricetulus griseus; experiment: Inhibition of HGF/SF-induced MET receptor activation assessed as ERK activation at 100 ug/mL by Western blot
[2] = organism: Cricetulus griseus; experiment: Inhibition of FGF2-induced FGF receptor activation assessed as ERK activation at 100 ug/mL by Western blot
[3] = test system: MDCK; experiment: Inhibition of HGF/SF-induced migration of MDCK cells at 100 ug/mL after 4 hrs; assay type: functional; conditions: Canis lupus familiaris

| Structure (SMILES) | Activity [1] | Activity [2] | inhibition at 100 µg/mL [3] [%] |
| --- | --- | --- | --- |
| O=C(O)c1cc(OC[C@@H](COS(=O)(=O)O)OS(=O)(=O)O)ccc1OC[C@H](COS(=O)(=O)O)OS(=O)(=O)O | Active | inactive | 57 |
| O=C(O)c1cc(OC[C@@H](COS(=O)(=O)O)OS(=O)(=O)O)ccc1OCCCCOS(=O)(=O)O | Active | inactive | 70 |
